What was measured:
SARS-CoV-2 [1] = assay: Phase 2/3 study, Phase 2b Part: score of 12 COVID-19 symptoms per unit time; assay type: in vivo, human; conditions: for Change from baseline up to 120 hours in total score of 12 COVID-19 symptoms per unit time: Adjusted mean value by covariance analysis (standard error) / Change from baseline up to 120 hours in total score of 12 COVID-19 symptoms per unit time: Difference of adjusted mean value from that of placebo group (standard error) / Change from baseline up to 120 hours in total score of 12 COVID-19 symptoms per unit time: Maximum value / Change from baseline up to 120 hours in total score of 12 COVID-19 symptoms per unit time: Mean value / Change from baseline up to 120 hours in total score of 12 COVID-19 symptoms per unit time: Median value / Change from baseline up to 120 hours in total score of 12 COVID-19 symptoms per unit time: Minimum value: mild/moderate patients, ITT1 population
Method: The primary endpoints of Phase 2b Part were the time-weighted average change in the total score of 12 COVID-19 symptoms per unit time from the start of the first administration (Day 1) to 120 hours (Day 6), and the change from baseline in SARS-CoV-2 virus titer on Day 4, in mild/moderate SARS-CoV-2-infected patients, and the clinical improvement and the antiviral effect of the active drug were confirmed.
The administration of the active drug is repeated oral administration once a day for 5 days. The 375/125 mg group received 375 mg on Day 1 as a loading dose and 125 mg on Days 2 to 5 as a maintenance dose. The 750/250 mg group received 750 mg on Day 1 as a loading dose and 250 mg on Days 2 to 5 as a maintenance dose.
The primary efficacy endpoints of Phase 2b Part for mild/moderate SARS-CoV-2-infected patients were the time-weighted average change in the total score of 12 COVID-19 symptoms per unit time from the start of the first administration (Day 1) to 120 hours (Day 6), and the change from baseline in SARS-CoV-2 virus titer on Day 4. The total score of 12 COVID-19 symptoms is the sum of the scores determined by evaluation in four grades (0: none, 1: mild, 2: moderate, 3: severe) in the subject daily records for each of the 12 COVID-19 symptoms (low energy and tiredness, muscle or body aches, headache, chills or shivering, feeling hot or feverish, stuffy and runny nose, sore throat, cough, shortness of breath (difficulty breathing), nausea, vomiting, diarrhea).
Pairwise comparison was performed between each active drug dose group and the placebo group. […] Pairwise comparison was performed between each active drug dose group and the placebo group.
The results of classifying the twelve COVID-19 symptoms shown in the above (2-a) into 5 types (acute symptoms, major clinical symptoms, respiratory symptoms, systemic symptoms, and gastrointestinal symptoms) and analyzing the same (ITT population) are shown in the following table. • Acute symptoms: sore throat, cough, feeling hot and feverish • Major clinical symptoms: stuffy and runny nose, sore throat, cough, chills or shivering, feeling hot or feverish • Respiratory symptoms: stuffy and runny nose, sore throat, cough, shortness of breath (difficulty breathing) • Systemic symptoms: low energy and tiredness, muscle or body aches, headache, chills or shivering, feeling hot or feverish • Gastrointestinal symptoms: nausea, vomiting, diarrhea

SARS-CoV-2 [2] = assay: Cytopathic effect (CPE) suppression effect confirmation test using VeroE6/TMPRSS2 cells; assay type: cell-based
[3] = Phase I clinical study Part 1, single administration, pharmacokinetics and safety; assay type: in vivo, human; conditions: phase 1 study
Method: Test Example 3-1 Phase I Clinical Study
All studies were conducted based on Good Clinical Practice (GCP). The phase I clinical study was composed of Part 1 to Part 7, and in Part 1, the safety, tolerability, and pharmacokinetics were confirmed when the fumaric acid cocrystal Form I crystal of the compound represented by Formula (I) was administered once and when it was administered repeatedly.
The subjects who were determined to be eligible by the screening examination were randomly assigned to either the active drug group (see the following table for the dose of the fumaric acid cocrystal Form I crystal of the compound represented by Formula (I)) or the placebo group on the day before the day of administration of the investigational new drug (Day −1). On Day 1, the investigational new drug (active drug or placebo) was administered once in the fasted state.

[4] = ITT population, 750/250 mg group

Cn1cnc(Cn2c(=O)[nH]/c(=N\c3cc4cn(C)nc4cc3Cl)n(Cc3cc(F)c(F)cc3F)c2=O)n1 [(6E)-6-[(6-chloro-2-methyl-2H-indazol-5-yl)imino]-3-[(1-methyl-1H-1,2,4-triazol-3-yl)methyl]-1-[(2,4,5-trifluorophenyl)methyl]-1,3,5-triazinane-2,4-dione]
Change from baseline up to 120 hours in sub-total score per unit time, major clinical symptoms: Mean value (SARS-CoV-2 [1]; [4]): −3.54 | Change from baseline up to 120 hours in sub-total score per unit time, major clinical symptoms: Median value (SARS-CoV-2 [1]; [4]): −3.42 | Change from baseline up to 120 hours in sub-total score per unit time, major clinical symptoms: Minimum value (SARS-CoV-2 [1]; [4]): −10.11 | Change from baseline up to 120 hours in sub-total score per unit time, respiratory symptoms: Adjusted mean value by covariance analysis (standard error) (SARS-CoV-2 [1]; [4]): −2.16 (0.12) | Change from baseline up to 120 hours in sub-total score per unit time, respiratory symptoms: Difference of adjusted mean value from that of placebo group (standard error) (SARS-CoV-2 [1]; [4]): −0.44 (0.15) | Change from baseline up to 120 hours in sub-total score per unit time, respiratory symptoms: Maximum value (SARS-CoV-2 [1]; [4]): 2.29 | Change from baseline up to 120 hours in sub-total score per unit time, respiratory symptoms: Mean value (SARS-CoV-2 [1]; [4]): −2.33 | Change from baseline up to 120 hours in sub-total score per unit time, respiratory symptoms: Median value (SARS-CoV-2 [1]; [4]): −2.30 | Change from baseline up to 120 hours in sub-total score per unit time, respiratory symptoms: Minimum value (SARS-CoV-2 [1]; [4]): −6.34 | Change from baseline up to 120 hours in sub-total score per unit time, systemic symptoms: Adjusted mean value by covariance analysis (standard error) (SARS-CoV-2 [1]; [4]): −3.16 (0.14) | Change from baseline up to 120 hours in sub-total score per unit time, systemic symptoms: Difference of adjusted mean value from that of placebo group (standard error) (SARS-CoV-2 [1]; [4]): 0.30 (0.17) | Change from baseline up to 120 hours in sub-total score per unit time, systemic symptoms: Maximum value (SARS-CoV-2 [1]; [4]): 2.71 | Change from baseline up to 120 hours in sub-total score per unit time, systemic symptoms: Mean value (SARS-CoV-2 [1]; [4]): −3.19 | Change from baseline up to 120 hours in sub-total score per unit time, systemic symptoms: Median value (SARS-CoV-2 [1]; [4]): −2.81 | Change from baseline up to 120 hours in sub-total score per unit time, systemic symptoms: Minimum value (SARS-CoV-2 [1]; [4]): −9.66 | Change from baseline up to 120 hours in total score of 12 COVID-19 symptoms per unit time: Adjusted mean value by covariance analysis (standard error) (SARS-CoV-2 [1]; 375/125 mg group): −5.37 (0.24) | Change from baseline up to 120 hours in total score of 12 COVID-19 symptoms per unit time: Difference of adjusted mean value from that of placebo group (standard error) (SARS-CoV-2 [1]; 375/125 mg group): −0.24 (0.30) | Change from baseline up to 120 hours in total score of 12 COVID-19 symptoms per unit time: Maximum value (SARS-CoV-2 [1]; 375/125 mg group): 2.43 | Change from baseline up to 120 hours in total score of 12 COVID-19 symptoms per unit time: Mean value (SARS-CoV-2 [1]; 375/125 mg group): −5.95 | Change from baseline up to 120 hours in total score of 12 COVID-19 symptoms per unit time: Median value (SARS-CoV-2 [1]; 375/125 mg group): −5.40 | Change from baseline up to 120 hours in total score of 12 COVID-19 symptoms per unit time: Minimum value (SARS-CoV-2 [1]; 375/125 mg group): −20.37 | Change from baseline up to 120 hours in total score of 12 COVID-19 symptoms per unit time: Adjusted mean value by covariance analysis (standard error) (SARS-CoV-2 [1]; 750/250 mg group): −5.17 (0.23) | Change from baseline up to 120 hours in total score of 12 COVID-19 symptoms per unit time: Difference of adjusted mean value from that of placebo group (standard error) (SARS-CoV-2 [1]; 750/250 mg group): −0.04 (0.29) | Change from baseline up to 120 hours in total score of 12 COVID-19 symptoms per unit time: Maximum value (SARS-CoV-2 [1]; 750/250 mg group): 2.47 | Change from baseline up to 120 hours in total score of 12 COVID-19 symptoms per unit time: Mean value (SARS-CoV-2 [1]; 750/250 mg group): −5.42 | Change from baseline up to 120 hours in total score of 12 COVID-19 symptoms per unit time: Median value (SARS-CoV-2 [1]; 750/250 mg group): −4.92 | Change from baseline up to 120 hours in total score of 12 COVID-19 symptoms per unit time: Minimum value (SARS-CoV-2 [1]; 750/250 mg group): −18.16 | EC50 (SARS-CoV-2 [2]; Severe acute respiratory syndrome coronavirus 2, VeroE6/TMPRSS2, Alpha strain (QHN001)): 310 nM | EC50 (SARS-CoV-2 [2]; Severe acute respiratory syndrome coronavirus 2, VeroE6/TMPRSS2, Alpha strain (QHN002)): 460 nM | EC50 (SARS-CoV-2 [2]; Severe acute respiratory syndrome coronavirus 2, VeroE6/TMPRSS2, Alpha strain (QK002)): 330 nM | EC50 (SARS-CoV-2 [2]; Severe acute respiratory syndrome coronavirus 2, VeroE6/TMPRSS2, Beta strain (TY8-612)): 400 nM | EC50 (SARS-CoV-2 [2]; Severe acute respiratory syndrome coronavirus 2, VeroE6/TMPRSS2, Delta strain (TY11-927-P1)): 410 nM | EC50 (SARS-CoV-2 [2]; Severe acute respiratory syndrome coronavirus 2, VeroE6/TMPRSS2, Gamma strain (TY7-501)): 500 nM | EC50 (SARS-CoV-2 [2]; Severe acute respiratory syndrome coronavirus 2, VeroE6/TMPRSS2, Gamma strain (TY7-503)): 430 nM | EC50 (SARS-CoV-2 [2]; Severe acute respiratory syndrome coronavirus 2, VeroE6/TMPRSS2, Lambda strain (TY33-456)): 270 nM | EC50 (SARS-CoV-2 [2]; Severe acute respiratory syndrome coronavirus 2, VeroE6/TMPRSS2, Mu strain (TY26-717)): 430 nM | EC50 (SARS-CoV-2 [2]; Severe acute respiratory syndrome coronavirus 2, VeroE6/TMPRSS2, Omicron BA.1 strain (TY38-873)): 290 nM | EC50 (SARS-CoV-2 [2]; Severe acute respiratory syndrome coronavirus 2, VeroE6/TMPRSS2, Omicron BA.1.1 strain (TY38-871)): 360 nM | EC50 (SARS-CoV-2 [2]; Severe acute respiratory syndrome coronavirus 2, VeroE6/TMPRSS2, Omicron BA.2 strain (TY40-385)): 520 nM | EC50 (SARS-CoV-2 [2]; Severe acute respiratory syndrome coronavirus 2, VeroE6/TMPRSS2, Omicron BA.2.12.1 strain (TY41-721)): 240 nM | EC50 (SARS-CoV-2 [2]; Severe acute respiratory syndrome coronavirus 2, VeroE6/TMPRSS2, Omicron BA.2.75 strain (TY41-716)): 300 nM | EC50 (SARS-CoV-2 [2]; Severe acute respiratory syndrome coronavirus 2, VeroE6/TMPRSS2, Omicron BA.4 strain (TY41-703)): 220 nM | EC50 (SARS-CoV-2 [2]; Severe acute respiratory syndrome coronavirus 2, VeroE6/TMPRSS2, Omicron BA.5 strain (TY41-702)): 400 nM | EC50 (SARS-CoV-2 [2]; Severe acute respiratory syndrome coronavirus 2, VeroE6/TMPRSS2, Omicron BQ.1.1 strain (TY41-796)): 480 nM | EC50 (SARS-CoV-2 [2]; Severe acute respiratory syndrome coronavirus 2, VeroE6/TMPRSS2, Omicron XBB.1 strain (TY41-795)): 330 nM | EC50 (SARS-CoV-2 [2]; Severe acute respiratory syndrome coronavirus 2, VeroE6/TMPRSS2, Omicron XE strain (TY41-686)): 440 nM | EC50 (SARS-CoV-2 [2]; Severe acute respiratory syndrome coronavirus 2, VeroE6/TMPRSS2, Theta strain (TY28-444)): 290 nM | serious adverse events [3]: no serious adverse events for which a causal relationship cannot be denied were reported
